Values of other authors as cited in patent US7057165B2, “Probe for mass spectrometry” (Sense Proteomic Ltd., priority 2001, dated 2006).

Target: T1, lectin from Arachis hypogea (Arachis hypogaea, UniProt P02872)
T1 construct: biotin (biotinylated lectin)
T1 sequence (P02872 24-259 limits assumed): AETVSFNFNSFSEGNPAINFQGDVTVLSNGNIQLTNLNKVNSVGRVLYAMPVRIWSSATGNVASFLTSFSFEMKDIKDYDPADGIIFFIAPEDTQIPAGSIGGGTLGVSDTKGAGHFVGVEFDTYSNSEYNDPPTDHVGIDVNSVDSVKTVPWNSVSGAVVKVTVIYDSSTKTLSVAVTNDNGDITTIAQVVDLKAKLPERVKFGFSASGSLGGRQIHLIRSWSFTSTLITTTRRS

**Q.** Which “binding constant for this lectin” value does the source give for OC[C@H]1O[C@@H](O[C@H]2[C@H](O)[C@@H](O)C(O)O[C@@H]2CO)[C@H](O)[C@@H](O)[C@H]1O (stereo partly shown) [lactose] here?
**A.** millimolar range
